Data reported in US7629356B2, “Substituted pyrrolo[3,4-b]pyridinamines and pharmaceutical compositions” (AstraZeneca AB, priority 2007, dated 2009).

Target: T1, human β-Secretase (soluble part AA1-AA460, sBACE-Fc) (Homo sapiens, UniProt P56817)
T1 construct: The soluble part of the human β-Secretase (AA1 -AA460) was cloned; Fc domain of IgG1; made in house
Assay: TR-FRET assay
Type: biochemical
Conditions: substrate (Europium)CEVNLDAEFK(Qsy7) 100 nM, pH 4.5, 15 min at RT
Experimental: The enzyme used in the IGEN Cleavage-, Fluorescent-, TR-FRET- and BiaCore assays is described as follows:
The soluble part of the human β-Secretase (AA1 -AA460) was cloned into the ASP2-Fc10-1-IRES-GFP-neoK mammalian expression vector. The gene was fused to the Fc domain of IgG1 (affinity tag) and stably cloned into HEK 293 cells. Purified sBACE-Fc is stored in Tris buffer, pH 9.2 and has a purity of 95%.
Enzyme was diluted to 6 μg/mL and the substrate (Europium)CEVNLDAEFK(Qsy7) to 200 nM in reaction buffer (NaAcetate, chaps, triton x-100, EDTA pH 4.5). Compounds were diluted to the desired concentration in dimethyl sulfoxide (final dimethyl sulfoxide concentration in assay is 5%). The assay was done in a Costar 384 well round bottom, low volume, non-binding surface plate (Corning #3676). Enzyme (9 μL) and 1 μL of compound in dimethyl sulfoxide was added to the plate, mixed and pre-incubated for 10 min. Substrate (10 μL) was added and the reaction proceeded in the dark for 15 min at RT. The reaction was stopped with the addition of 7 μL NaAcetate, pH 9. The fluorescence of the product was measured on a Victor II plate reader with an excitation wavelength of 340 nm and an emission wavelength of 615 nm. The final concentration of the enzyme was 2.7 μg/ml and the final concentration of the substrate was 100 nM (Km of 290 nM). The dimethyl sulfoxide control defined the 100% activity level and 0% activity was defined by exclusion of the enzyme (using reaction buffer instead).

T1 sequence (P56817 22-460): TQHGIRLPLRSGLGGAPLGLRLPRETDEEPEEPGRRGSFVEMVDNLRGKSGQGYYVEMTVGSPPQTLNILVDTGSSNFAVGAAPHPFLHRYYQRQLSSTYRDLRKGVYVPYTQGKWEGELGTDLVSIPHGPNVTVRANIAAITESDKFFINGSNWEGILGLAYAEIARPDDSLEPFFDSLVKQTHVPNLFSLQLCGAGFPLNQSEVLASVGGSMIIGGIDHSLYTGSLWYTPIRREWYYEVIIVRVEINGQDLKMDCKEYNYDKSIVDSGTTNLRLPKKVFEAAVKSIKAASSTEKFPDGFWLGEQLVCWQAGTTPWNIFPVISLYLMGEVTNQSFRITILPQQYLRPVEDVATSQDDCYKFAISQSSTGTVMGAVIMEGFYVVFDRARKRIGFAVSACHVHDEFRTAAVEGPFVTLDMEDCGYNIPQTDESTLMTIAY

Row | SMILES | Ki [nM]
1 | NC1=NC(c2ccncc2)(c2cccc(-c3cccnc3F)c2)c2cnccc21 (stereo not drawn) [Example 17, 3-[3-(2-Fluoropyridin-3-yl)phenyl]-3-pyridin-4-yl-3H-pyrrolo[3,4-c]pyridin-1-amine] | 62
2 | NC1=NC(c2ccncc2)(c2cccc(-c3cccnc3F)c2)c2ncccc21 (stereo not drawn) [Example 21, 7-[3-(2-Fluoropyridin-3-yl)phenyl]-7-pyridin-4-yl-7H-pyrrolo[3,4-b]pyridin-5-amine] | 93
3 | COc1ccc(F)c(-c2cccc(C3(c4ccncc4)N=C(N)c4ncccc43)c2)c1 (stereo not drawn) [Example 11, 5-(2′-Fluoro-5-methoxybiphenyl-3-yl)-5-pyridin-4-yl-5H-pyrrolo[3,4-b]pyridin-7-amine 0.25 acetate] | 219
4 | COc1ccc(C2(c3cccc(-c4cncc(OC)c4)c3)N=C(N)c3ncccc32)cc1 (stereo not drawn) [Example 7, 5-(4-Methoxyphenyl)-5-[3-(5-methoxypyridin-3-yl)phenyl]-5H-pyrrolo[3,4-b]pyridin-7-amine] | 178
5 | COc1ccc(C2(c3cccc(-c4cncnc4)c3)N=C(N)c3ncccc32)cc1 (stereo not drawn) [Example 5, 5-(4-Methoxyphenyl)-5-(3-pyrimidin-5-ylphenyl)-5H-pyrrolo[3,4-b]pyridin-7-amine] | 282
6 | NC1=NC(c2ccncc2)(c2cccc(-c3cncnc3)c2)c2ncccc21 (stereo not drawn) [Example 22, 7-Pyridin-4-yl-7-(3-pyrimidin-5-ylphenyl)-7H-pyrrolo[3,4-b]pyridin-5-amine] | 170
7 | COc1ccc(C2(c3cccc(-c4cccnc4F)c3)N=C(N)c3ncccc32)cc1 (stereo not drawn) [Example 6, 5-[3-(2-Fluoropyridin-3-yl)phenyl]-5-(4-methoxyphenyl)-5H-pyrrolo[3,4-b]pyridin-7-amine] | 275
8 | COc1cccc(-c2cccc(C3(c4ccncc4)N=C(N)c4ncccc43)c2)c1F (stereo not drawn) [Example 12, 5-(2′-Fluoro-3′-methoxybiphenyl-3-yl)-5-pyridin-4-yl-5H-pyrrolo[3,4-b]pyridin-7-amine 0.5 acetate] | 398
9 | NC1=NC(c2ccncc2)(c2cccc(-c3cncnc3)c2)c2cnccc21 (stereo not drawn) [Example 16, 3-Pyridin-4-yl-3-(3-pyrimidin-5-ylphenyl)-3H-pyrrolo[3,4-c]pyridin-1-amine] | 91
10 | NC1=NC(c2ccncc2)(c2cccc(-c3cccnc3F)c2)c2cccnc21 (stereo not drawn) [Example 9, 5-[3-(2-Fluoropyridin-3-yl)phenyl]-5-pyridin-4-yl-5H-pyrrolo[3,4-b]pyridin-7-amine] | 295
11 | NC1=NC(c2ccncc2)(c2cccc(-c3cncnc3)c2)c2cccnc21 (stereo not drawn) [Example 10, 5-Pyridin-4-yl-5-(3-pyrimidin-5-ylphenyl)-5H-pyrrolo[3,4-b]pyridin-7-amine] | 324
12 | COc1ccc(C2(c3cccc(-c4cccnc4)c3)N=C(N)c3ncccc32)cc1 (stereo not drawn) [Example 8, 5-(4-Methoxyphenyl)-5-(3-pyridin-3-ylphenyl)-5H-pyrrolo[3,4-b]pyridin-7-amine] | 339
